The results in this text go back to patent US20170096443A1, “PLATINUM(IV) COMPOUNDS AND METHODS OF MAKING AND USING SAME” (UNIVERSITY OF GEORGIA RESEARCH FOUNDATION, INC., priority 2014, published 2017).

One assay deals with PC3 cells. The assay can be described thus: MTT cytotoxicity assay in PC3 cells. As to conditions: 72 hours incubation, read-out: IC50 in prostate cancer cells, PC3. The assay is classed as cell-based, Human. On the procedure:
(§1) Cisplatin and ADIBO-COOH were used as controls. […] Cell Lines and Cell Culture. […] Cytotoxicity Analysis of Platin-CLK by MTT Assay. […] The media was changed and increasing concentrations of each compound was added. […] Final working solutions were prepared in culture media (RPMI) by keeping total DMSO percentage <1%. These were then incubated for 72 hours. […] The IC50 values were reported at ±99% confidence intervals.
A general note: Formazan colour is commonly taken as a measure of viable cells.

In another assay the test system is DU145 cells. The experiment in a line: MTT cytotoxicity assay in DU145 cells. The assay is classed as cell-based, Human. Particulars: 72 hours incubation, read-out: IC50 in prostate cancer cells, DU145. On the procedure:
as §1

The IC50 is the concentration needed to halve the response being measured. Regarding `N.N.[Cl][Pt][Cl]` [Cisplatin, Cis-diamminedichloroplatinum(II)], the results for the IC50 in the assay on PC3 cells and in the assay with DU145 cells were 12 ± 2 µM and 6 ± 0.9 µM, respectively.
Turning to `O=C(O)CCC(=O)NCCC(=O)N1Cc2ccccc2C#Cc2ccccc21` [ADIBO-COOH], the figures for the IC50 in the assay on PC3 cells and with DU145 cells were greater than 200 µM and 284 ± 72 µM, respectively.
